Measurements published in patent US9221870B2, “Crystal form of an organic compound and process for the preparation thereof” (Richter Gedeon Nyrt., priority 2009, dated 2015).
≈ marks a conversion by molar mass, not a printed value.

Columns and labels:
Assay type in all cases: physicochemical
[1] = Fast stability test (storage on a plate at 40° C. in air, impurity by HPLC); conditions: for Impurity / N-demethyl-derivative of CDB-4124: HPLC; for Impurity, Σ (increase Day 0 to Day 10) / N-demethyl-derivative of CDB-4124, Σ (increase Day 0 to Day 10): Σ over 10 days, in the presence of air
Protocol: Amorphous and crystalline forms were stored on a plate at 40° C. in the presence of air for 10 days. Impurity was measured at different times using an HPLC equipment. […]

[2] = Solubility at 25° C. in solvent (MeOH)
Description: Form I is a monotropic modification of CDB-4124 such as Form II. […] Furthermore, Form I can be transformed into Form II via crystallization from different medium.

[3] = Water adsorption by dynamic vapour sorption (DVS); conditions: 25° C., 0%-95% relative humidity, adsorption-desorption
Protocol: Water adsorption properties of the crystalline Form II of CDB-4124 were measured by dynamic vapour sorption technique (DVS). […]

Compound	Impurity ([1]; Day 0, in the presence of air)	N-demethyl-derivative of CDB-4124 ([1]; Day 0, in the presence of air)	Impurity ([1]; Day 1, in the presence of air)	N-demethyl-derivative of CDB-4124 ([1]; Day 1, in the presence of air)	Impurity ([1]; Day 2, in the presence of air)	N-demethyl-derivative of CDB-4124 ([1]; Day 2, in the presence of air)	Impurity ([1]; Day 6, in the presence of air)	N-demethyl-derivative of CDB-4124 ([1]; Day 6, in the presence of air)	Impurity ([1]; Day 10, in the presence of air)	N-demethyl-derivative of CDB-4124 ([1]; Day 10, in the presence of air)	Impurity, Σ (increase Day 0 to Day 10) [1]	N-demethyl-derivative of CDB-4124, Σ (increase Day 0 to Day 10) [1]	solubility [2]	change of mass as the degree of humidity was increased [3]
COCC(=O)[C@@]1(OC(C)=O)CC[C@H]2[C@@H]3CCC4=CC(=O)CCC4=C3[C@@H](c3ccc(N(C)C)cc3)C[C@@]21C [Amorphous form, 17α-acetoxy-21-methoxy-11β-[4-N,N-dimethylaminophenyl]-19-norpregna-4,9-diene-3,20-dione, reference compound]	0.87%	0.15%	0.97%	0.21%	1.03%	0.25%	1.63%	0.55%	1.97%	0.73%	1.1%	0.58%	–	–
COCC(=O)[C@@]1(OC(C)=O)CC[C@H]2[C@@H]3CCC4=CC(=O)CCC4=C3[C@@H](c3ccc(N(C)C)cc3)C[C@@]21C [Form I, 17α-acetoxy-21-methoxy-11β-[4-N,N-dimethylaminophenyl]-19-norpregna-4,9-diene-3,20-dione, reference compound]	–	–	–	–	–	–	–	–	–	–	–	–	500 mg/mL (≈ 989 mM)	–
COCC(=O)[C@@]1(OC(C)=O)CC[C@H]2[C@@H]3CCC4=CC(=O)CCC4=C3[C@@H](c3ccc(N(C)C)cc3)C[C@@]21C [Form II, 17α-acetoxy-21-methoxy-11β-[4-N,N-dimethylaminophenyl]-19-norpregna-4,9-diene-3,20-dione]	0.14%	0.02%	0.14%	0.02%	0.14%	0.02%	0.15%	0.02%	0.17%	0.03%	0.03%	0.01%	23 mg/mL (≈ 45.5 mM)	barely changed
